In US20240409556A1, “BENZOPIPERAZINE AND RELATED ANALOGS FOR INHIBITING YAP/TAZ-TEAD” (Springworks Therapeutics, Inc., priority 2023, published 2024):

System: YAP/TAZ-TEAD transcription
Assay: Reporter gene assay for measuring the inhibition of YAP/TAZ-TEAD transcription (TEAD-responsive element luciferase reporter in Hek293T cells)
Format: cell-based
Conditions: 24 hours incubation
In short: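 HEK293T cells transiently transfected with a TEAD-responsive luciferase reporter were exposed to compounds for 24 h at 37° C/5% CO2, then luminescence was read. Percent inhibition normalised to vehicle (0%) and positive-control inhibitor (100%); IC50 derived.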

SMILES | IC50 (Homo sapiens, HEK-293T, 24 h) [nM] | IC50 [nM]
CNC(=O)N1CCN2c3ncccc3N(c3ccc(C(F)(F)F)cc3)CC2C1 (stereo not drawn) [compound 52, N-methyl-5-(4-(trifluoromethyl)phenyl)-5,6,6a,7,9,10-hexahydro-8H-pyrazino[1,2-a]pyrido[3,2-e]pyrazine-8-carboxamide] | < 1000 | 
CC(=O)N1CCN2c3ncccc3N(c3ccc(C(F)(F)F)cn3)CC2C1 (stereo not drawn) [compound 53, 1-(5-(5-(trifluoromethyl)pyridin-2-yl)-5,6,6a,7,9,10-hexahydro-8H-pyrazino[1,2-a]pyrido[3,2-e]pyrazin-8-yl)ethan-1-one] |  | < 1000
CC(=O)N1CCN2c3ncccc3N(c3ccc(C(F)(F)F)nc3)CC2C1 (stereo not drawn) [compound 54, 1-(5-(6-(trifluoromethyl)pyridin-3-yl)-5,6,6a,7,9,10-hexahydro-8H-pyrazino[1,2-a]pyrido[3,2-e]pyrazin-8-yl)ethan-1-one] | 1000 to 10000 | 
CC(=O)N1CC(N2CCN(c3ccc(C(F)(F)F)cc3)c3ccccc32)C1 [compound 56, 1-(3-(4-(4-(trifluoromethyl)phenyl)-3,4-dihydroquinoxalin-1(2H)-yl)azetidin-1-yl)ethan-1-one] | < 1000 | 
CC(=O)NCCN1CCN(c2ccc(C(F)(F)F)cc2)c2ccccc21 [compound 57, N-(2-(4-(4-(trifluoromethyl)phenyl)-3,4-dihydroquinoxalin-1(2H)-yl)ethyl)acetamide] | < 1000 | 
CC(=O)NCC1CN(c2ccc(C(F)(F)F)cc2)c2cccnc2S1(=O)=O (stereo not drawn) [compound 58, N-((4,4-dioxido-1-(4-(trifluoromethyl)phenyl)-2,3-dihydro-1H-pyrido[2,3-b][1,4]thiazin-3-yl)methyl)acetamide] | > 10000 | 
CC(=O)N1CC2CN(c3ccc(C(F)(F)F)cc3)c3cccnc3N2C1=O (stereo not drawn) [compound 59, 8-acetyl-5-(4-(trifluoromethyl)phenyl)-6,6a,7,8-tetrahydroimidazo[1,5-a]pyrido[3,2-e]pyrazin-9(5H)-one] | > 10000 | 
Cn1cncc1CN1CCN(c2ccc(C(F)(F)F)cc2)c2ccccc21 [compound 60, 1-((1-methyl-1H-imidazol-5-yl)methyl)-4-(4-(trifluoromethyl)phenyl)-1,2,3,4-tetrahydroquinoxaline] | < 1000 | 
Cc1ncc(CN2CCN(c3ccc(C(F)(F)F)cc3)c3ccccc32)[nH]1 [compound 61, 1-((2-methyl-1H-imidazol-5-yl)methyl)-4-(4-(trifluoromethyl)phenyl)-1,2,3,4-tetrahydroquinoxaline] | < 1000 | 
FC(F)(F)c1ccc(N2CCN(Cc3ncc[nH]3)c3ccccc32)cc1 [compound 62, 1-((1H-imidazol-2-yl)methyl)-4-(4-(trifluoromethyl)phenyl)-1,2,3,4-tetrahydroquinoxaline] | < 1000 | 
FC(F)(F)c1ccc(N2CCN(Cc3cccnc3)c3ccccc32)cc1 [compound 64, 1-(pyridin-3-ylmethyl)-4-(4-(trifluoromethyl)phenyl)-1,2,3,4-tetrahydroquinoxaline] | 1000 to 10000 | 
Cc1nc[nH]c1CN1CCN(c2ccc(C(F)(F)F)cc2)c2ccccc21 [compound 66, 1-((4-methyl-1H-imidazol-5-yl)methyl)-4-(4-(trifluoromethyl)phenyl)-1,2,3,4-tetrahydroquinoxaline] | < 1000 | 
FC(F)(F)c1ccc(N2CCN(Cc3cnco3)c3ccccc32)cc1 [compound 67, 5-((4-(4-(trifluoromethyl)phenyl)-3,4-dihydroquinoxalin-1(2H)-yl)methyl)oxazole] | < 1000 | 
O=S1(=O)CCN2c3ncccc3N(c3ccc(C(F)(F)F)cc3)CC2C1 (stereo not drawn) [compound 68, 5-(4-(trifluoromethyl)phenyl)-5,6,6a,7,9,10-hexahydropyrido[3′,2′:5,6]pyrazino[2,1-c][1,4]thiazine 8,8-dioxide] | 1000 to 10000 | 
FC(F)(F)c1ccc(N2CCN(Cc3ccno3)c3ccccc32)cc1 [compound 69, 5-((4-(4-(trifluoromethyl)phenyl)-3,4-dihydroquinoxalin-1(2H)-yl)methyl)isoxazole] | > 10000 | 
CS(=O)(=O)N1CCN2C(=O)CN(c3ccc(C(F)(F)F)cc3)CC2C1 (stereo not drawn) [compound 71, 8-(methylsulfonyl)-2-(4-(trifluoromethyl)phenyl)octahydro-4H-pyrazino[1,2-a]pyrazin-4-one] | > 10000 | 
CNS(=O)(=O)N1CCN2C(=O)CN(c3ccc(C(F)(F)F)cc3)CC2C1 (stereo not drawn) [compound 72, N-methyl-6-oxo-8-(4-(trifluoromethyl)phenyl)octahydro-2H-pyrazino[1,2-a]pyrazine-2-sulfonamide] | > 10000 | 
COc1ccc2c(n1)OC(CNC(C)=O)CN2c1ccc(C(F)(F)F)cc1 (stereo not drawn) [compound 73, N-((6-methoxy-1-(4-(trifluoromethyl)phenyl)-2,3-dihydro-1H-pyrido[2,3-b][1,4]oxazin-3-yl)methyl)acetamide] |  | < 1000

SMILES | IC50 (Homo sapiens, HEK-293T, 24 h) [nM] | IC50 [nM]
O=C(c1cn[nH]c1)N1CCN(c2ccc(C(F)(F)F)cc2)c2ccccc21 [compound 74, (1H-pyrazol-4-yl)(4-(4-(trifluoromethyl)phenyl)-3,4-dihydroquinoxalin-1(2H)-yl)methanone] | < 1000 | 
CC(=O)NCC1CN(c2ccc(C(F)(F)F)cc2)c2cc(Cl)cnc2O1 (stereo not drawn) [compound 75, N-((7-chloro-1-(4-(trifluoromethyl)phenyl)-2,3-dihydro-1H-pyrido[2,3-b][1,4]oxazin-3-yl)methyl)acetamide] |  | < 1000
CC(=O)NCC1CN(c2ccc(C(F)(F)F)cc2)c2ccc(C(F)(F)F)nc2O1 (stereo not drawn) [compound 76, N-((6-(trifluoromethyl)-1-(4-(trifluoromethyl)phenyl)-2,3-dihydro-1H-pyrido[2,3-b][1,4]oxazin-3-yl)methyl)acetamide] | 1000 to 10000 | 
CC(=O)NCC1CN(c2ccc(C(F)(F)F)cc2)c2ccc(C)nc2O1 (stereo not drawn) [compound 77, N-((6-methyl-1-(4-(trifluoromethyl)phenyl)-2,3-dihydro-1H-pyrido[2,3-b][1,4]oxazin-3-yl)methyl)acetamide] | < 1000 | 
CC(=O)NCC1CN(c2ccc(C(F)(F)F)cn2)c2cccnc2O1 (stereo not drawn) [compound 78, N-((1-(5-(trifluoromethyl)pyridin-2-yl)-2,3-dihydro-1H-pyrido[2,3-b][1,4]oxazin-3-yl)methyl)acetamide] | 1000 to 10000 | 
CC(=O)N1CC(=O)N2c3ccccc3N(c3ccc(C(F)(F)F)cc3)CC2C1 (stereo not drawn) [compound 79] |  | < 1000
O=C1CN(c2ccc(C(F)(F)F)cc2)c2ccccc2N1Cc1cn[nH]c1 [compound 80, 1-((1H-pyrazol-4-yl)methyl)-4-(4-(trifluoromethyl)phenyl)-3,4-dihydroquinoxalin-2(1H)-one] | < 1000 | 
CC(=O)NCC1CN(c2ccc(C(F)(F)F)cc2)c2ccc(C3CC3)nc2O1 (stereo not drawn) [compound 81, N-((6-cyclopropyl-1-(4-(trifluoromethyl)phenyl)-2,3-dihydro-1H-pyrido[2,3-b][1,4]oxazin-3-yl)methyl)acetamide] |  | < 1000
CCc1ccc2c(n1)OC(CNC(C)=O)CN2c1ccc(C(F)(F)F)cc1 (stereo not drawn) [compound 82, N-((6-ethyl-1-(4-(trifluoromethyl)phenyl)-2,3-dihydro-1H-pyrido[2,3-b][1,4]oxazin-3-yl)methyl)acetamide] | < 1000 | 
COC(=O)N[C@@H]1C[C@@H]2CN(c3ccc(C(F)(F)F)cc3)c3cccnc3N2C1 [compound 83, methyl ((6aR,8R)-5-(4-(trifluoromethyl)phenyl)-5,6,6a,7,8,9-hexahydropyrido[3,2-e]pyrrolo[1,2-a]pyrazin-8-yl)carbamate] | < 1000 | 
CNC(=O)N[C@@H]1C[C@@H]2CN(c3ccc(C(F)(F)F)cc3)c3cccnc3N2C1 [compound 84, 1-methyl-3-((6aR,8R)-5-(4-(trifluoromethyl)phenyl)-5,6,6a,7,8,9-hexahydropyrido[3,2-e]pyrrolo[1,2-a]pyrazin-8-yl)urea] | < 1000 | 
CC(=O)NCC1CN(c2ccc(C(F)(F)F)cc2)c2ccc(N(C)C)nc2O1 (stereo not drawn) [compound 87, N-((6-(dimethylamino)-1-(4-(trifluoromethyl)phenyl)-2,3-dihydro-1H-pyrido[2,3-b][1,4]oxazin-3-yl)methyl)acetamide] | < 1000 | 
C=CC(=O)N1CC2CN(c3ccc(C(F)(F)F)cc3)c3ccccc3N2CC1C(=O)O (stereo not drawn) [compound 88, (cis)- or (trans)-3-acryloyl-6-(4-(trifluoromethyl)phenyl)-2,3,4,4a,5,6-hexahydro-1H-pyrazino[1,2-a]quinoxaline-2-carboxylic acid] | < 1000 | 
C=CC(=O)N1CC2CN(c3ccc(C(F)(F)F)cc3)c3ccccc3N2CC1C(=O)O (stereo not drawn) [compound 89, (cis)- or (trans)-3-acryloyl-6-(4-(trifluoromethyl)phenyl)-2,3,4,4a,5,6-hexahydro-1H-pyrazino[1,2-a]quinoxaline-2-carboxylic acid] |  | < 1000
CC(=O)N1CC2CN(c3ccc(C(F)(F)F)cc3)c3ccccc3N2CC1C(=O)O (stereo not drawn) [compound 90, (cis)- or (trans)-3-acetyl-6-(4-(trifluoromethyl)phenyl)-2,3,4,4a,5,6-hexahydro-1H-pyrazino[1,2-a]quinoxaline-2-carboxylic acid] |  | > 10000
CC(=O)N1CC2CN(c3ccc(C(F)(F)F)cc3)c3ccccc3N2CC1C(=O)O (stereo not drawn) [compound 91, (cis)- or (trans)-3-acetyl-6-(4-(trifluoromethyl)phenyl)-2,3,4,4a,5,6-hexahydro-1H-pyrazino[1,2-a]quinoxaline-2-carboxylic acid] |  | < 1000
CNC(=O)O[C@@H]1C[C@@H]2CN(c3ccc(C(F)(F)F)cc3)c3cccnc3N2C1 [compound 92, (6aR,8R)-5-(4-(trifluoromethyl)phenyl)-5,6,6a,7,8,9-hexahydropyrido[3,2-e]pyrrolo[1,2-a]pyrazin-8-yl methylcarbamate] | < 1000 | 
CC(=O)N[C@@H]1C[C@@H]2CN(c3ccc(C(F)(F)F)cc3)c3cc(C)cnc3N2C1 [compound 93, N-((6aR,8R)-3-methyl-5-(4-(trifluoromethyl)phenyl)-5,6,6a,7,8,9-hexahydropyrido[3,2-e]pyrrolo[1,2-a]pyrazin-8-yl)acetamide] | < 1000 | 
